The source of these data is patent US20140045943A1, “Hydroxamic Acid Derivatives, Preparation and Therapeutic Uses Thereof” (Naurex, Inc., priority 2008, published 2014).

A word on the melting point: it is the temperature, or range, at which the solid turns liquid.

Data set [1] concerns rat retinal cell line, E1A-NR.3. Description: 3-aminopropanal neurotoxicity assay, LDH release, retinal cell cultures. The conditions noted are these: for % Neuroprotection (600 μM): compound 600 μM, 24-hour incubation with 400 μM 3-aminopropanal in retinal ganglion cells. The data set is classed as cell-based. On the procedure: The rat retinal cell line, E1A-NR.3, was grown in DMEM, containing 10% FBS, in 75 cm2 flasks. […] Media was collected and assayed for LDH using the Roche assay kit. Rabbit muscle LDH was used for the standard curve. Drug treatments of aldehyde sequestering agents were as co-treatments or delayed administration of about 0.5 to about 3 hours. All drugs were dissolved in PBS.
On the technique in general: LDH in the medium is a marker of cell lysis.

The test system is the same in data set [2]. As to conditions: co-treatments and delayed addition; reference (1); cited from earlier work.
The next data set deals with Methemoglobin. Description: Methemoglobinemia in the rat. In kind it is in vivo. As to conditions: for Methemoglobin (%): 50 mg/kg, sc, 1 hr. The text has this:
Hydroxylamines are efficacious aldehyde sequestering agents but also may induce methemaglobinemia. Methemoglobinemia is the condition caused by the oxidation of hemoglobin into methemoglobin or a deficiency in the ability of the body to reduce methemoglobin to hemoglobin.
Table 2 sets forth a comparison of the percentage of hemoglobin that is in the form of methemoglobin under control conditions, in the presence of aldehyde sequestering agent, N-enzylhydroxylamine (NBHA) and the hydroxamic acid, AK-10.

The subject of the next data set is Male Sprague Dawley rats. Nature of the data set: Trimethyltin (TMT) model, KCl-evoked glutamate release from hippocampal slices. The conditions noted are these: AK-10 25 mg/kg, sc daily for 17 days, starting 24 hours after TMT 8 mg/kg, FIG. 3. The data set is classed as in vivo, rat. Here is the method:
Male Sprague Dawley rats (200 g; Harlan) were administered […], sc trimethyltin (TMT) and housed individually as a result of the aggressive behavior induced by the neurotoxicant. The day following the TMT treatment, rats were started on a once daily dosing for 17 days with vehicle or AK-10 (25 mg/kg, sc) in PBS. Rats were decapitated on day 19 and the hippocampi isolated and placed in chilled Hanks Balanced Salt Solution containing 20 mM HEPES (HBSS-HEPES, 4° C.) for release experiments.
Chilled tissues were cut into 300 μm slices. A single slice was incubated in 2 ml of HBSS-HEPES in 12-well culture plates at 37° C. for 30 min. The media was discarded and the slice incubated for 2-10 min periods, each with fresh media. Next, the slices were incubated for 5 min after which the media was isolated for amino acid analyses (Pre-sample), followed by a 5 min incubation in which 50 mM KCl was added to evoke neurotransmitter release from the slices (KCl sample). Next, a final 5 min incubation in HBSS-HEPES was collected (Post sample). […]
For the GC-MS analysis of glutamate, an Agilent bench-top GC-MSD (HP6890/MSD5973) system was autotuned (41, 267 and 599) under PCI conditions with methane as the reagent gas. […] The [MH]+ ions that were monitored were 332 and 338 for endogenous GABA and its internal standard, and 490 and 495 for endogenous glutamate and its internal standard. […]

With `CC(C)C(N)CC(=O)NO` (centres unmarked) [AK-26, 3-amino-N-hydroxy-4-methylpentamide], in data set [1], the “% Neuroprotection (600 μM)” value is listed as 58%.
On the same count and under the same terms, under `CCC(C)C(N)C(=O)NO` (centres unmarked) [AK-29, 2-amino-N-hydroxy-3-methylpentamide] stands 4%; under `CC(N)C(=O)NO` (centres unmarked) [AK-27, 2-amino-N-hydroxypropanamide], 6%.
For the compound `ONCc1ccccc1` [NBHA, N-benzylhydroxylamine, reference compound], the “protection of retinal cells from 3-aminopropanal toxicity” value (“protection of retinal cells” for short) in data set [2] is recorded as “protected retinal cells”. Besides, the “Methemoglobin (%)” value in the data set on Methemoglobin is 22.6 ± 3.1%.
Regarding `CCCC(N)C(=O)NO` (centres unmarked) [AK-25, 2-amino-N-hydroxypentamide], in data set [1], the “% Neuroprotection (600 μM)” value came out at 28%.
Consider `O=C1O[C@H]([C@@H](O)CO)C(O)=C1O` [ascorbic acid, reference compound], for which the “protection in the rat trimethyltin model of CA3 glutamatergic cell death (KCl-evoked glutamate release as index of CA3 neuronal loss)” value with Male Sprague Dawley rats is “not”.
For the compound `CC(S)C(=O)NCC(=O)O` (centres unmarked) [N-(2-mercaptopropionyl)-glycine], the “protection of retinal cells” value in data set [2] is “active”.
In the case of `CCC(N)C(=O)NO` (centres unmarked) [AK-28, 2-amino-N-hydroxybutanamide], the “% Neuroprotection (600 μM)” value in data set [1] was found to be 39%.
In the case of `CC(=O)NC(CC(C)C)C(=O)NO` (centres unmarked) [AK-12, 2-acetoamido-N-hydroxy-4-methylpentamide], the melting point was 47 to 49 °C. The “% Neuroprotection (600 μM)” value in data set [1] stood at 10%.
`ONC1CCCCC1` [cyclohexylhydroxylamine]: in data set [2], the “protection of retinal cells” value is listed as “protected retinal cells”.
For the compound `CC(C)(C)NO` [t-butylhydroxylamine], the “protection of retinal cells” value in data set [2] is recorded as “protected retinal cells”.
In the case of `CC(C)CC(N)C(=O)NO` (centres unmarked) [AK-10, 2-amino-N-hydroxy-4-methylpentamide], the “protection in the rat trimethyltin model of CA3 glutamatergic cell death (KCl-evoked glutamate release as index of CA3 neuronal loss)” value with Male Sprague Dawley rats is on record as “prevention of TMT neurotoxicity”. For the same compound, the “Methemoglobin (%)” value with Methemoglobin is 2.2 ± 0.3%. Besides, the methemoglobinemia entry in the data set with Methemoglobin (N-benzylhydroxylamine as positive control) is “lack of methemoglobinemia”. Also, the “delay of treatment after 3-AP still giving reduced 24-hour LDH levels” value in data set [1] (300 μM AK-10, delayed co-treatment 0.5 to 3 hours, 400 μM 3-AP, FIG. 2) is “at least 3 hours”. Also, in data set [1] (Table 1, FIG. 1, FIG. 2), the “activity in the model of aldehyde-induced cell death” value is “most efficacious analog”. The “24-hour LDH level versus cells exposed to 3-AP alone” value in data set [1] (co-treatment, 150 μM, 300 μM and 600 μM AK-10 with 400 μM 3-AP, FIG. 1) is recorded as “significantly reduce”. Also, the “% Neuroprotection (600 μM)” value in data set [1] is given as 100%.
